Assay in all cases: KINOMEscan competition binding
One assay deals with EGFR (Homo sapiens, UniProt P00533). Conditions: read-out: %Inh EGFR.
The target in another assay is T1, ANKK1 (Homo sapiens, UniProt Q8NFD2).
T1 sequence (Q8NFD2 1-765): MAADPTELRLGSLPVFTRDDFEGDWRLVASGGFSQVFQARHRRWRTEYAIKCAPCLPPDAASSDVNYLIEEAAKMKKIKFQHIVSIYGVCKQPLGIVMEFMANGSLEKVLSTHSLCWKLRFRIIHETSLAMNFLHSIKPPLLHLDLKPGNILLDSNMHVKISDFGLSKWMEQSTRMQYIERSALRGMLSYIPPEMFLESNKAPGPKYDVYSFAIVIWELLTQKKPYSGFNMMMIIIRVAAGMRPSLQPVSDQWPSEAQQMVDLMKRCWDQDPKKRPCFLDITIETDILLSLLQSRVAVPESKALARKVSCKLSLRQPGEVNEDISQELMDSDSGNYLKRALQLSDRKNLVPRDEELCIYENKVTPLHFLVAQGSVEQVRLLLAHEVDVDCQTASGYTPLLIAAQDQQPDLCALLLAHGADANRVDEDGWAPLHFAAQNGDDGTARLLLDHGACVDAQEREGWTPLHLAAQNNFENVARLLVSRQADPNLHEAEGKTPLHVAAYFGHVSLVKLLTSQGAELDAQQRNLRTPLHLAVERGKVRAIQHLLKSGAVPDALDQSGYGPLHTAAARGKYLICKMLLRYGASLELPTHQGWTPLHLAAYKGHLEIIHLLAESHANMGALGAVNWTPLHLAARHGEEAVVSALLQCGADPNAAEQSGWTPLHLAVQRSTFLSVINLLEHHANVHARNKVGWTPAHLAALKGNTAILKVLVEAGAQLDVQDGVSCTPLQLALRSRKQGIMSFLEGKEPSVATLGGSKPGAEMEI
The settings on record: read-out: %Inh ANKK1.

A further assay has as its target T2, CDKL5 (Homo sapiens, UniProt O76039).
T2 sequence (O76039 1-960): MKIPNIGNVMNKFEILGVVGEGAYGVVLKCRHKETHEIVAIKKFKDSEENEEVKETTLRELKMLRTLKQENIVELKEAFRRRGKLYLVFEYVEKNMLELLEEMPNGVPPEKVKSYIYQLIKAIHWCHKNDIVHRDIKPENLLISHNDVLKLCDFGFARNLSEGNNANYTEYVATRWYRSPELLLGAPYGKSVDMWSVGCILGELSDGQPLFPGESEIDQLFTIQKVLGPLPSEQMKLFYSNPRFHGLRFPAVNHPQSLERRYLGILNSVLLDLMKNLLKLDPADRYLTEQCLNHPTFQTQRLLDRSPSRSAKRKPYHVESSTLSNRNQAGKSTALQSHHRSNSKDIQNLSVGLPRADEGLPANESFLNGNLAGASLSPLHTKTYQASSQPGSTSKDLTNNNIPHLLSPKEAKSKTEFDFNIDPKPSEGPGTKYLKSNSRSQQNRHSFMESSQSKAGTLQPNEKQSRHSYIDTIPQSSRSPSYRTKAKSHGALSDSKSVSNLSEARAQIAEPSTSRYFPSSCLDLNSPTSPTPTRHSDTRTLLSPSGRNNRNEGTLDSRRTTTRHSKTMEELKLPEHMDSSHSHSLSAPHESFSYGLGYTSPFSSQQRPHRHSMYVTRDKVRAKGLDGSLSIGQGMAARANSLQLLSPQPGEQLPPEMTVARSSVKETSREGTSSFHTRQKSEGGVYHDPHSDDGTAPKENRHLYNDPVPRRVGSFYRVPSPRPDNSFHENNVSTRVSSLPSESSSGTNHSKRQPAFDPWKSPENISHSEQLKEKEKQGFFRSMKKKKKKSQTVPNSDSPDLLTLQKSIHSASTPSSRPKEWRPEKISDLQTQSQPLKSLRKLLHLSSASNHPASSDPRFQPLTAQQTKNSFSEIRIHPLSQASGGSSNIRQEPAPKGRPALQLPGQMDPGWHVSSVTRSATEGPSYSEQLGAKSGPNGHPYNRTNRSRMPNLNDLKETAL
The settings on record: read-out: %Inh CDKL5.

The target in another assay is LOK (Homo sapiens, UniProt O94804). The settings on record: read-out: %Inh LOK.
Chain of LOK (O94804 whole entry): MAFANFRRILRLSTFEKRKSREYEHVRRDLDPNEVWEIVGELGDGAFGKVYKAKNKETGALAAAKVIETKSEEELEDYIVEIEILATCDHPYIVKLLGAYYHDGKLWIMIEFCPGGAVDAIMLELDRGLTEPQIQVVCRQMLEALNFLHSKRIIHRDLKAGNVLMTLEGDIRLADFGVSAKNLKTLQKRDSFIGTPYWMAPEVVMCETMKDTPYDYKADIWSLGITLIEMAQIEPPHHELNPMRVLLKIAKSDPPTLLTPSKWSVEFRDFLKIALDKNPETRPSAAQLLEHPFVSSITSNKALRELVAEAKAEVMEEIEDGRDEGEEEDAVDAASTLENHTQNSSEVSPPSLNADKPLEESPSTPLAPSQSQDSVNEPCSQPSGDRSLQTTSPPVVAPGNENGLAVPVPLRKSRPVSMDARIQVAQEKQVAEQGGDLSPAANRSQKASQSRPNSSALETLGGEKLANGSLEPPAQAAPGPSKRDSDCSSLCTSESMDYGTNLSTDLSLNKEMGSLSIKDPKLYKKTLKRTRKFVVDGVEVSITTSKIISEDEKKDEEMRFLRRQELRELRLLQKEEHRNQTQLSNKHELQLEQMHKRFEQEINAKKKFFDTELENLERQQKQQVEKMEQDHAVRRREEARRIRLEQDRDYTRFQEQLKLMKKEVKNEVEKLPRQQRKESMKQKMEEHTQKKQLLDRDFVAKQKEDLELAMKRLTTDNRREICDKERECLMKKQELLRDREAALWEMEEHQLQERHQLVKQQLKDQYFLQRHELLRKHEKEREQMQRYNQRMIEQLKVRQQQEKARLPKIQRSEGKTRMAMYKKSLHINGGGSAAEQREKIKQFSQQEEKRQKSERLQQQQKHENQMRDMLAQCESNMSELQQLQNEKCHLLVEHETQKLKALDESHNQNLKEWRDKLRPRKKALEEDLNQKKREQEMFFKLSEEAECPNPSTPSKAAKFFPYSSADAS
For a further assay, the target named is JNK2 (Homo sapiens, UniProt P45984). The settings on record: read-out: %Inh JNK2.
Chain of JNK2 (P45984 whole entry): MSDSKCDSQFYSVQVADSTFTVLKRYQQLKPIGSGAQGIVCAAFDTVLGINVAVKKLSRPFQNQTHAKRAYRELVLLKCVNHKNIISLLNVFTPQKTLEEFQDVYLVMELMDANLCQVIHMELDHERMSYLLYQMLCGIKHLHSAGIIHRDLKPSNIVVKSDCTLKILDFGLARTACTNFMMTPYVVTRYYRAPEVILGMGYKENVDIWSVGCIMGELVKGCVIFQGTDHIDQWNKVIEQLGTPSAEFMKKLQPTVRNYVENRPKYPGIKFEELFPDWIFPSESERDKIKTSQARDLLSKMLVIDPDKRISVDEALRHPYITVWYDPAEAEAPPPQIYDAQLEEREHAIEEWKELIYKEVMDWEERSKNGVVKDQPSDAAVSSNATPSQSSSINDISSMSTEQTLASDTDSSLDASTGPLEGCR
Another assay addresses T3, EPHB3 (Homo sapiens, UniProt P54753).
T3 sequence (P54753 34-998): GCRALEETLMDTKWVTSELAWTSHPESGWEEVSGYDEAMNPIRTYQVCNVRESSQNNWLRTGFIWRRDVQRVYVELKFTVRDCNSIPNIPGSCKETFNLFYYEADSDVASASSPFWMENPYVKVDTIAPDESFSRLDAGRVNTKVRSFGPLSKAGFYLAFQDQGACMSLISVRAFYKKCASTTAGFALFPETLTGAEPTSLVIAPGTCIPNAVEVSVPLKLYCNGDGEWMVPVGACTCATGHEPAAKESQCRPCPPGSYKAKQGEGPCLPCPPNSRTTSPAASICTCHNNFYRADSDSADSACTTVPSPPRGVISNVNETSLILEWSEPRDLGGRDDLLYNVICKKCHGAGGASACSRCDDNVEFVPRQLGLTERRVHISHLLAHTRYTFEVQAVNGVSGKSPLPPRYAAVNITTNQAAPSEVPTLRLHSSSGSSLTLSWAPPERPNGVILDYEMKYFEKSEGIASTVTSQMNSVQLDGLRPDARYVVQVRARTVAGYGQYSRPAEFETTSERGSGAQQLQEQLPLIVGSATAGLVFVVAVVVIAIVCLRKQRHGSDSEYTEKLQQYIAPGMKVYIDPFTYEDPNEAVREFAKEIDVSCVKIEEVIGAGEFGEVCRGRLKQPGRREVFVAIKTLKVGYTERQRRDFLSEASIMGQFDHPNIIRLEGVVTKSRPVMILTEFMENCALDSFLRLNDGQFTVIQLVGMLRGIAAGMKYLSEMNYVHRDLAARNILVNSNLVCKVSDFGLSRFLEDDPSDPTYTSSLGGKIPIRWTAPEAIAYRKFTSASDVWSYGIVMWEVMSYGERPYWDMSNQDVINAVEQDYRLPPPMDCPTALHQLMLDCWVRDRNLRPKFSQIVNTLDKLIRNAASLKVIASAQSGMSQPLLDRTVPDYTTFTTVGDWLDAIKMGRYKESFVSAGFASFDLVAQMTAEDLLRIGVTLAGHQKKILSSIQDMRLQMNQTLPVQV
The settings on record: read-out: %Inh EPHB3.

Chain of EGFR (P00533 25-1210): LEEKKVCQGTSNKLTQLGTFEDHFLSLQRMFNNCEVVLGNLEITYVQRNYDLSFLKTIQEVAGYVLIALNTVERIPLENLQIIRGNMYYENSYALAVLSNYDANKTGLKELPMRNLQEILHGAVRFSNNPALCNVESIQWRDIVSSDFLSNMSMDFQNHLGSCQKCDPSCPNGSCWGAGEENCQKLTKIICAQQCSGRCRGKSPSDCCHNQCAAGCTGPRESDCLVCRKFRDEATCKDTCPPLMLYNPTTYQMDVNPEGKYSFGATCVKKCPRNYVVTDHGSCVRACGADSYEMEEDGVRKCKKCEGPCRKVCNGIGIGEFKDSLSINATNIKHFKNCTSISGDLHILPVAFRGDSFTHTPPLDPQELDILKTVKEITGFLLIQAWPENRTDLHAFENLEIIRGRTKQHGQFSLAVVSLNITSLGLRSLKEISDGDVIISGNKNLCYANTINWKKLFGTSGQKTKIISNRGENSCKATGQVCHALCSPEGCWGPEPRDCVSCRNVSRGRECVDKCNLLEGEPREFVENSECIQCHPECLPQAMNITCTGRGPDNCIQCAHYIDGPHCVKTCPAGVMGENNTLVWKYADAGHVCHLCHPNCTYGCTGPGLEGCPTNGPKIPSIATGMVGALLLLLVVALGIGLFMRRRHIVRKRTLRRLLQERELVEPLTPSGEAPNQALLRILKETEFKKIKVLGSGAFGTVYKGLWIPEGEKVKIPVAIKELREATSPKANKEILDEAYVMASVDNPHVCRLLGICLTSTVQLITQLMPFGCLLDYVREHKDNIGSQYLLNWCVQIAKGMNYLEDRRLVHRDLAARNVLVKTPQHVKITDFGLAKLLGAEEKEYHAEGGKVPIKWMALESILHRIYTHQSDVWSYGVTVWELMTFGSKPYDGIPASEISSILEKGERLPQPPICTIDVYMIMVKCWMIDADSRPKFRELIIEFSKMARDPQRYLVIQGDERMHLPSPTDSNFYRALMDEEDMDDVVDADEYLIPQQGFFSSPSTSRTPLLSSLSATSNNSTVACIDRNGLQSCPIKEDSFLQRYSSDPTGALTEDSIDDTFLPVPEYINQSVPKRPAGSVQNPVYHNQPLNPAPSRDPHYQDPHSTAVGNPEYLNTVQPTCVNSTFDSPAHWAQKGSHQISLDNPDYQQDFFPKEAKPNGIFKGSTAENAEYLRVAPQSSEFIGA

For the compound `COc1cccc(OC)c1C(=O)Nc1cccc(-c2nn3ccccc3c2-c2ccnc(Nc3cccc(F)c3)n2)c1` [UNC10225310A], the inhibition at 1 µM at EGFR was 91.7%; at ANKK1 it was 93.2%; at CDKL5 it was 0%; on LOK it was 90%; on JNK2, 0%; at EPHB3, 8%.

As to `O=c1cc(N2CCOCC2)nc2n(Cc3cccc(Cl)c3Cl)c(C3CC3)nn12` [UNC10225469A], the inhibition at 1 µM is 0% at EGFR; 0% on ANKK1; 0% at CDKL5; 0% on LOK; 0% at JNK2; 7% at EPHB3.

For the compound `Cn1cc(-c2cnc(N)c3c(-c4ccc5c(c4)CCN5C(=O)Cc4ccccc4)csc23)cn1` [UNC10225012A], the inhibition at 1 µM at EGFR was 3%; on ANKK1 it was 0%; on CDKL5, 0%; at LOK, 98.9%; at JNK2, 0%; on EPHB3 it was 4%.

As to `CS(=O)(=O)Cc1ccc(Nc2nccc(-c3c(-c4cccc(NC(=O)C5CCCCC5)c4)nn4ncccc34)n2)cc1` [UNC10225159A], the inhibition at 1 µM on EGFR was 68%; on ANKK1, 0%; on CDKL5, 33%; on LOK, 81%; on JNK2, 49%; at EPHB3, 5%.

Consider `Cc1ccc(NC(=O)Nc2cccc(C(F)(F)F)c2)cc1` [UNC10225187A], for which the inhibition at 1 µM is 0% at EGFR; 0% at ANKK1; 0% at CDKL5; 0% at LOK; 26% at JNK2; 0% on EPHB3.

The values are drawn from paper PMC5540273, “Progress towards a public chemogenomic set for protein kinases and a call for contributions” (PLoS ONE, 2017).
